In patent US9370507B2, “Pyridonyl guanidine F1F0-ATPase inhibitors and therapeutic uses thereof” (Lycera Corporation, priority 2010, dated 2016):
pEC50, pIC50: −log10 of the molar value.

Tests used:
F1F0-ATPase = target: T1, F1F0-ATPase (Bos taurus, UniProt P13621); experiment: Inhibition of F1F0-ATPase activity in synthesizing ATP; assay type: biochemical; details: inhibition of ATP synthesis; read-out: ATP Syn IC50
T1 construct: from tissue
Experimental: (§1) The compounds listed in Table 4 were tested for activity against F1F0-ATPase by measuring the ability of the compounds to inhibit ATP synthesis. In addition, the compounds were assessed for cytotoxicity in Ramos cells Inhibition of F1F0-ATPase activity in synthesizing ATP and cytotoxicity in Ramos cells were measured according to the procedures described in K. M. Johnson et al. Chemistry & Biology 2005, 12, 485-496.

Ramos cells = experiment: Cytotoxicity in Ramos cells; assay type: cell-based; details: Homo sapiens, read-out: Ramos Cell EC50
Experimental: as §1

SMILES	pIC50 (F1F0-ATPase)	pEC50 (Ramos cells)
O=C(/N=C(\Nc1cccc(C(F)(F)F)c1)Nc1cccc(O)n1)c1ccc(C(F)(F)F)cc1 [Compound A-1]	> 5.00	> 5.00
O=C(/N=C(/Nc1cc(F)cc(Cl)c1)Nc1cccc(O)n1)c1ccc(C(F)(F)F)cc1 [Compound A-2]	> 5.00	> 5.00
O=C(/N=C(/Nc1cccc(C(F)(F)F)c1)Nc1cccc(O)n1)c1ccc(F)c(F)c1 [Compound A-3]	> 5.00	> 5.00
O=C(/N=C(/Nc1cc(F)cc(Cl)c1)Nc1cccc(O)n1)c1ccc(F)c(F)c1 [Compound A-4]	> 5.00	> 5.00
O=C(/N=C(/Nc1ccc(F)c(Cl)c1)Nc1cccc(O)n1)c1ccc(C(F)(F)F)cc1 [Compound A-5]	> 5.00	> 5.00
O=C(/N=C(\Nc1cccc(O)n1)Nc1ccccc1C1CC1)c1ccc(C(F)(F)F)cc1 [Compound A-6]	> 5.00	> 5.00
O=C(N/C(=N\c1cccc(O)n1)Nc1cccc(Cl)c1)c1ccc(C(F)(F)F)cc1 [Compound A-7]	> 5.00	> 5.00
O=C(N/C(=N\c1cccc(O)n1)Nc1cc(F)cc(Cl)c1)c1ccc(Cl)cc1 [Compound A-8]	> 5.00	> 5.00
O=C(N/C(=N\c1cccc(O)n1)Nc1ccc(F)c(Cl)c1)c1ccc(F)c(F)c1 [Compound A-9]	< 5.00	< 5.00
CN(/C(=N\C(=O)c1ccc(F)c(F)c1)Nc1cccc(O)n1)c1ccc(F)c(Cl)c1 [Compound A-10]	< 5.00	< 5.00
O=C(/N=C(\Nc1cccc(O)n1)Nc1ccc(F)cc1C1CC1)c1ccc(F)c(F)c1 [Compound A-11]	> 5.00	> 5.00
O=C(/N=C(\Nc1cccc(O)n1)Nc1ccc(F)cc1C1CC1)c1ccc(C(F)(F)F)cc1 [Compound A-12]	> 5.00	> 5.00
CC(C)(C)c1ccccc1N/C(=N/C(=O)c1ccc(F)c(F)c1)Nc1cccc(O)n1 [Compound A-13]	> 5.00	> 5.00
CC(C)(C)c1ccccc1N/C(=N/C(=O)c1ccc(C(F)(F)F)cc1)Nc1cccc(O)n1 [Compound A-14]	> 5.00	> 5.00
O=C(/N=C(/Nc1cccc(C(F)(F)F)c1)Nc1cccc(O)n1)c1ccc(Cl)cc1 [Compound A-15]	> 5.00	> 5.00
O=C(/N=C(/Nc1cccc(C(F)(F)F)c1)Nc1cccc(O)n1)c1cccc(Cl)c1 [Compound A-16]	> 5.00	> 5.00
O=C(/N=C(/Nc1cccc(C(F)(F)F)c1)Nc1cccc(O)n1)c1cccc(C(F)(F)F)c1 [Compound A-17]	> 5.00	> 5.00
O=C(/N=C(/Nc1cccc(C(F)(F)F)c1)Nc1cccc(O)n1)c1ccc(Cl)c(F)c1 [Compound A-18]	> 5.00	> 5.00
O=C(/N=C(/Nc1cccc(Cl)c1)Nc1cccc(O)n1)c1cccc(Cl)c1 [Compound A-19]	> 5.00	> 5.00
O=C(/N=C(/Nc1cccc(Cl)c1)Nc1cccc(O)n1)c1cccc(C(F)(F)F)c1 [Compound A-20]	> 5.00	> 5.00
O=C(/N=C(/Nc1cc(F)cc(Cl)c1)Nc1cccc(O)n1)c1cccc(Cl)c1 [Compound A-21]	> 5.00	> 5.00
O=C(/N=C(/Nc1cc(F)cc(Cl)c1)Nc1cccc(O)n1)c1cccc(C(F)(F)F)c1 [Compound A-22]	> 5.00	> 5.00
O=C(/N=C(/Nc1cc(F)cc(Cl)c1)Nc1cccc(O)n1)c1ccc(Cl)c(F)c1 [Compound A-23]	> 5.00	> 5.00
O=C(/N=C(/Nc1cccc(Cl)c1)Nc1cccc(O)n1)c1ccc(F)c(F)c1 [Compound A-24]	> 5.00	> 5.00
O=C(/N=C(/Nc1cccc(Cl)c1)Nc1cccc(O)n1)c1ccc(Cl)cc1 [Compound A-25]	> 5.00	< 5.00
O=C(/N=C(/Nc1cccc(C2CC2)c1)Nc1cccc(O)n1)c1ccc(C(F)(F)F)cc1 [Compound A-26]	> 5.00	> 5.00
